In series [1] the target is T1, Amine oxidase [flavin-containing] A (Homo sapiens, UniProt P21397).
T1 sequence (P21397 whole entry): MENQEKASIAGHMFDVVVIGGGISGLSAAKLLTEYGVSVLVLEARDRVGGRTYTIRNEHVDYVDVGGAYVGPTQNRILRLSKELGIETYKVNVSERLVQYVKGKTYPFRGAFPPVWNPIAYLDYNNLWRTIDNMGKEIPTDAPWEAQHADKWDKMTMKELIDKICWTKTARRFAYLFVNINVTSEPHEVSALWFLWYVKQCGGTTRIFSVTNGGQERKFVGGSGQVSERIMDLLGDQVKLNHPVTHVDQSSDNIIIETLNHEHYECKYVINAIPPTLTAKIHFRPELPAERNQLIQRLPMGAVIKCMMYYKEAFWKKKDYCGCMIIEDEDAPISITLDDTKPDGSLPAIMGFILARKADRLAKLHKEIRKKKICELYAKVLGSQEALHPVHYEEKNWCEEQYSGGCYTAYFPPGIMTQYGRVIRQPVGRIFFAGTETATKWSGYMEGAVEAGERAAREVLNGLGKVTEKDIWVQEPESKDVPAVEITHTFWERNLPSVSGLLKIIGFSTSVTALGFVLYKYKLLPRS
Put plainly: Inhibition of human recombinant MAO-A using kynuramine as substrate. It counts as toxicity.

Series [2] addresses T2, Amine oxidase [flavin-containing] B (Homo sapiens, UniProt P27338).
T2 sequence (P27338 whole entry): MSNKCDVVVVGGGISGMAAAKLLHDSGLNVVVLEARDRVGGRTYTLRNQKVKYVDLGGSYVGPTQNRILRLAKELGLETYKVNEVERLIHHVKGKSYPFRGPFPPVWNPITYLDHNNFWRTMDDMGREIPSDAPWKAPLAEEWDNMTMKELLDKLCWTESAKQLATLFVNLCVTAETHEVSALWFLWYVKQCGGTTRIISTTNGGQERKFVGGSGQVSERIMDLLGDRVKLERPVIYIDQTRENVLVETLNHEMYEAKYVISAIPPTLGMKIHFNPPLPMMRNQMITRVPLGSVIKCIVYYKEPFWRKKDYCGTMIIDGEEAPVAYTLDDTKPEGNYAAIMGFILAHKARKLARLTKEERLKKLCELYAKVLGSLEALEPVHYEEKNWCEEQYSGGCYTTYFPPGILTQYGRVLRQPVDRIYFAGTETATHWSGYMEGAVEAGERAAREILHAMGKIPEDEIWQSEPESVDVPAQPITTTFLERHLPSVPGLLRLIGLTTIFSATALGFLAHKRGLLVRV
Put plainly: Inhibition of human recombinant MAO-B using benzylamine as substrate. In kind it is toxicity.

The subject of series [3] is Mycobacterium tuberculosis. Put plainly: Antimycobacterial activity against Mycobacterium tuberculosis H37Rv assessed as prevention of bacterial growth measured after 7 days by alamar blue assay. In kind it is functional. The conditions noted are these: 168 h, time 7 day. In general terms: Alamar Blue is a resazurin reagent that responds to reducing activity.
Series [4] has as its system Mycobacterium tuberculosis. Put plainly: Antimycobacterial activity against Mycobacterium tuberculosis clinical isolate without mutation incubated for 1 week by resazurin dye based fluorescence analysis. In kind it is functional. To be noted: time 1 weeks.
Series [5] concerns the target T2, Amine oxidase [flavin-containing] B. Put plainly: Inhibition of human recombinant MAO-B using tyramine as substrate by ELISA. In kind it is toxicity. (In general: An ELISA detects its analyte on a solid surface through an enzyme-linked reagent.)
The target of series [6] is T1, Amine oxidase [flavin-containing] A. Put plainly: Inhibition of human recombinant MAO-A using tyramine as substrate by ELISA. It counts as toxicity.
A further series concerns Staphylococcus aureus. Nature of the series: Antibacterial activity against Staphylococcus aureus ATCC 25923. It counts as functional.
The next series addresses T3, MAO-B (Homo sapiens, UniProt P27338).
T3 sequence (P27338 whole entry): T2 sequence (P27338 whole entry)
Nature of the series: Potency index, ratio of test compound IC50 to linezolid IC50 for inhibition of human recombinant MAO-B using benzylamine as substrate. In kind it is toxicity. To be noted: probe benzylamine, read-out: Ratio IC50.

Values after ≈ are worked out from the molar mass of the structure shown. Values joined by “and” are separate entries in the source; they are usually repeats but may differ in a detail not shown here. Identical values can stand only once. Where only a bound is given, the exact number is not on record here.

Broadly, the IC50 is the midpoint of a concentration-inhibition curve. As usually defined, the MIC is the least concentration at which growth counts as inhibited. As a reminder, the MIC50 is an inhibitory concentration at the 50% level, which refers to growth in some studies and to a panel of isolates in others. High values mean weaker potency, low ones greater potency.

Turning to `CCCCS(=O)(=O)NC[C@H]1CN(c2ccc(N3CCOCC3)c(F)c2)C(=O)O1`, the IC50 in series [1] was more than 40 µM; in series [2], 25.4 µM. For the same molecule, the MIC in series [3] was 1.87 µM and > 25 µg/mL.
On to `NNC(=O)c1ccncc1` [ISONIAZID], for which the MIC50 in series [4] is less than 0.2 µM.
Regarding `CS(=O)(=O)NC[C@H]1CN(c2ccc(N3CCOCC3)c(F)c2)C(=O)O1`, the IC50 in series [1] is more than 40 µM; in series [2] it was 2.95 µM. In series [4], this molecule returned an MIC50 of 1.11 µM (≈ 0.414 µg/mL). In addition, the MIC in series [3] was determined as 2.14 µM (≈ 0.799 µg/mL).
In the same order, the values of `O=C1O[C@@H](CNS(=O)(=O)c2cccs2)CN1c1ccc(N2CCOCC2)c(F)c1` are more than 40 µM, 27.3 µM, 4.01 µM (≈ 1.77 µg/mL) and 1.76 µM (≈ 0.777 µg/mL).
`CC(=O)NC[C@H]1CN(c2ccc(N3CCOCC3)c(F)c2)C(=O)O1` [LINEZOLID]: the MIC50 in series [4] stood at 0.34 µM (≈ 0.115 µg/mL). Besides, the MIC in series [3] was determined as 2.31 µM (≈ 0.779 µg/mL).
In series [4], `CO[C@H]1/C=C/O[C@@]2(C)Oc3c(C)c(O)c4c(O)c(c(/C=N/N5CCN(C)CC5)c(O)c4c3C2=O)NC(=O)/C(C)=C\C=C\[C@H](C)[C@H](O)[C@@H](C)[C@@H](O)[C@@H](C)[C@H](OC(C)=O)[C@@H]1C` [RIFAMPIN] returned an MIC50 of less than 0.04 µM.
Consider `O=C(NC[C@H]1CN(c2ccc(N3CCOCC3)c(F)c2)C(=O)O1)c1cccs1`, for which the results for the IC50 in series [1] and in series [2] were more than 40 µM and 33.1 µM, respectively. The same molecule came in with an MIC50 in series [4] of 3.12 µM (≈ 1.27 µg/mL). For the same molecule, the MIC in series [3] was found to be 1.92 µM (≈ 0.778 µg/mL).
In the case of `CC(C)(C)c1ccc(S(=O)(=O)NC[C@H]2CN(c3ccc(N4CCOCC4)c(F)c3)C(=O)O2)cc1`, the 50% inhibitory concentration (IC50) was 19.3 µM in series [1] and 13.2 µM in series [2]. In addition, in series [3], the MIC was 1.58 µM and > 25 µg/mL.
As for `O=C1O[C@@H](CNS(=O)(=O)C2CC2)CN1c1ccc(N2CCOCC2)c(F)c1`, the figures for the IC50 in series [1] and in series [2] were more than 40 µM and 11.4 µM, respectively. For the same molecule, the MIC in series [3] is 1.95 µM and > 25 µg/mL.
On to `O=C1O[C@H](Cn2ccnn2)CN1c1ccc(N2CCOCC2)c(F)c1`, for which the figures for the IC50 in series [5] and in series [6] were 15.4 µM and 31.9 µM, respectively. The molecule also yielded an MIC in the series with Staphylococcus aureus of 1 µg/mL (≈ 2.88 µM).
As for `CCS(=O)(=O)NC[C@H]1CN(c2ccc(N3CCOCC3)c(F)c2)C(=O)O1`, the IC50 in series [1] and in series [2] was more than 40 µM in each case. Besides, the MIC50 in series [4] was 0.74 µM (≈ 0.287 µg/mL). The minimal inhibitory concentration (MIC) in series [3] worked out at 2.01 µM (≈ 0.779 µg/mL). The selectivity ratio at MAO-B came out at 64.6.
As for `O=C(NC[C@H]1CN(c2ccc(N3CCOCC3)c(F)c2)C(=O)O1)C1CC1`, the IC50 in series [1] was more than 40 µM; in series [2], 30.3 µM. In series [4], this molecule returned an MIC50 of 1.11 µM (≈ 0.403 µg/mL). Also, the MIC in series [3] was determined as 2.08 µM (≈ 0.756 µg/mL).

For the origin of these results see ChEMBL document CHEMBL5532742, “Design and Synthesis of the Linezolid Bioisosteres to Resolve the Serotonergic Toxicity Associated with Linezolid” (ACS Med Chem Lett, 2024).
